From publication PMC6957263 (Bioorganic & medicinal chemistry letters, 2013)

Experiments:
[1] = target: T1, human TRPV1 heterologously expressed in CHO cells (Homo sapiens, UniProt Q8NER1); experiment: binding competition assay with [3H]RTX; conditions: for fold greater potency than the racemate in binding affinity: 2R vs 2, 3R vs 3; for fold less potent than the racemate in binding affinity: 2S vs 2, 3S vs 3
[2] = target: T1, human TRPV1 heterologously expressed in CHO cells; experiment: functional 45Ca2+ uptake assay; format: cell-based
[3] = human TRPV1, within ca. x-fold of RTX

T1 sequence (Q8NER1 whole entry): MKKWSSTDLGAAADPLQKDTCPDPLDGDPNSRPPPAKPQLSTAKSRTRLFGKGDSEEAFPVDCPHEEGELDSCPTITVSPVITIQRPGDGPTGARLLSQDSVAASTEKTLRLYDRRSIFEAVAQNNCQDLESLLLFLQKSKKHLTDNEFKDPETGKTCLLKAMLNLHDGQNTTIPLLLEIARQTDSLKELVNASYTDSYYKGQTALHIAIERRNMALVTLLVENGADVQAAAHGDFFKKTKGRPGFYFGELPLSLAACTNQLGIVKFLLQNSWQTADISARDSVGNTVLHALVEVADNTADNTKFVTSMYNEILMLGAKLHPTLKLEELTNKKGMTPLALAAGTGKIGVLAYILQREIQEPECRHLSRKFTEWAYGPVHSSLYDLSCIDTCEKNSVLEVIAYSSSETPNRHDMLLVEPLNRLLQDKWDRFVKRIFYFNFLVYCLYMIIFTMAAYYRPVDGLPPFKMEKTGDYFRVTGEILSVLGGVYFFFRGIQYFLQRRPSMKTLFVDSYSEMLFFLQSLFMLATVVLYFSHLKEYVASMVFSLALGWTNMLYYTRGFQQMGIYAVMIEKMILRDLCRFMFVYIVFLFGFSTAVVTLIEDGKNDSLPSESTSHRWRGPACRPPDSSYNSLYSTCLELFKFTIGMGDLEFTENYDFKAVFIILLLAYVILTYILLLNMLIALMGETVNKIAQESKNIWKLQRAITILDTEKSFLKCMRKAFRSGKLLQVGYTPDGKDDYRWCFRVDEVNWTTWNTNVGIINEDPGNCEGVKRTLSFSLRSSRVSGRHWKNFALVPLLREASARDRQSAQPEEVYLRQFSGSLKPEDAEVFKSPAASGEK

CC(C)(C)C(=O)OCC(CNC(=S)NCc1ccc(NS(C)(=O)=O)c(F)c1)Cc1ccc(C(C)(C)C)cc1 (stereo not drawn) [Compound 3]
fold less potent than I-RTX in binding affinity ([1]; hTRPV1): ca. 2 fold | fold less potent than I-RTX in antagonism ([2]; hTRPV1): ~20 fold

COc1cc(CNC(=S)NC[C@H](COC(=O)C(C)(C)C)Cc2ccc(C(C)(C)C)cc2)ccc1O [Compound 2R]
fold greater potency than the racemate in binding affinity ([1]; hTRPV1): 2 fold | fold greater potency than the racemate 2 in agonism ([2]; hTRPV1): 1.5 fold

COc1cc(CNC(=S)NC[C@@H](COC(=O)C(C)(C)C)Cc2ccc(C(C)(C)C)cc2)ccc1O [Compound 2S]
fold less potent than the racemate in binding affinity ([1]; hTRPV1): 1.1 fold | fold less potent than 2 in agonism ([2]; hTRPV1): 7 fold

COc1cc(CNC(=S)NCC(COC(=O)C(C)(C)C)Cc2ccc(C(C)(C)C)cc2)ccc1O (stereo not drawn) [Compound 2]
fold of the potency of RTX in binding affinity [1, 3]: ca. 5 fold | fold of the potency of RTX in agonism [2, 3]: ~1.5 fold

CC(C)(C)C(=O)OC[C@H](CNC(=S)NCc1ccc(NS(C)(=O)=O)c(F)c1)Cc1ccc(C(C)(C)C)cc1 [Compound 3S]
fold less potent than the racemate in binding affinity ([1]; hTRPV1): 3 fold | fold less potency compared to 3 in antagonism ([2]; hTRPV1): 1.3 fold

CC(C)(C)C(=O)OC[C@@H](CNC(=S)NCc1ccc(NS(C)(=O)=O)c(F)c1)Cc1ccc(C(C)(C)C)cc1 [Compound 3R]
fold greater potency than the racemate in binding affinity ([1]; hTRPV1): 1.3 fold | fold greater potency than 3 in antagonism ([2]; hTRPV1): 1.3 fold
